Source: patent US6673340B1, “Basement membrane degrading proteases as insect toxins and methods of use for same” (Iowa State University Research Foundation, Inc., priority 1999, dated 2004)

System: zinc metalloproteases
Experiment: Azocoll assay with selective protease inhibitor
Assay type: biochemical
Conditions: 1 mM inhibitor, azocoll assay pH 7.6
Description: Azocoll assays were carried out as described by Fisher and Werb (1995). For assays on medium from cells infected with the viruses expressing the mammalian proteases, all medium samples were concentrated 10-fold except for medium from AcMLF9.STR1-infected cells. Samples for analysis of S. peregrina cathepsin L expression were not concentrated. Aliquots of infected cell medium (2.5 μl for AcMLF9. ScathL-infected cells, 40 μl for all other samples) were mixed with 200 μl of 2 mg/ml azocoll suspended either in 50 mM Tris, pH 7.6-10 mM CaCl2-200 mM NaCl-50 μM ZnSO4 (for detection of stromelysin-1 and gelatinase A activity) or in 0.1 M sodium acetate, pH 5.0 (for detection of cathepsin L activity) in a final volume of 240 μl. A control reaction with sufficient dispase (Boehringer Mannheim, Indianapolis, Ind.) to digest all azocoll in the reaction tube was used as a standard. […] Absorbance of the supernatant was measured at 520 nm for each reaction, and mg azocoll digested/ml medium was calculated based on the absorbance of the dispase control reaction (Fisher, S. J., and Werb, Z. 1995. The catabolism of extracellular matrix components. In “Extracellular Matrix: A Practical Approach” (M. A. Haralson, and J. R. Hassell, Eds.), pp. 261-287. Oxford University Press, New York).

c1cnc2c(c1)ccc1cccnc12 [1,10-phenanthroline]
Inhibition of proteolytic activity in supernatants of stromelysin- and gelatinase-expressing virus infections: inhibited
